≈ marks a conversion by molar mass, not a printed value.
Conditions: for aqueous solubility: pH 6.8

Row | Compound | intrinsic clearance, human liver microsomes | intrinsic clearance, rat liver microsomes | aqueous solubility | MDR1-MDCK efflux ratio | fraction unbound, human plasma | fraction unbound, rat plasma
1 | CC(=O)N1CCc2cc(Nc3nccc(C(F)(F)F)n3)ccc21 | 130 mL/min/kg | 271 mL/min/kg | 1.2 µg/mL (≈ 3.72 µM) |  |  | 
2 | Cc1ccc(NC(=O)CN2CCCN(c3ccc(C(F)(F)F)cn3)CC2)cc1 | 126 mL/min/kg | 602 mL/min/kg | 12.9 µg/mL (≈ 33 µM) | 0.857 |  | 
3 | CC(C)n1ccc(C(=O)N2CCS(=O)(=O)C(C)(C)C2)n1 | ≤ 4.74 mL/min/kg | 33.7 mL/min/kg | 46.4 µg/mL (≈ 155 µM) | 2.42 |  | 
4 | CCCc1nn(CCCN2CCCCC2)c(=O)o1 | 13.6 mL/min/kg | 1600 mL/min/kg |  | 0.542 |  | 
5 | CCCNC(=O)NS(=O)(=O)c1ccc(Cl)cc1 | ≤ 4.74 mL/min/kg | 15.2 mL/min/kg |  |  | 0.0933 | 0.0425
6 | COc1cc(CNC(=O)NC2CCCCC2)cc(OC)c1O | ≤ 4.74 mL/min/kg | ≤ 10.7 mL/min/kg | 78 µg/mL (≈ 253 µM) | 4.18 |  | 
7 | CCN(C(=O)N1CCC(CC(=O)N2CCN(C)CC2)CC1)C(C)C | 23.9 mL/min/kg | 54.7 mL/min/kg | 81.3 µg/mL (≈ 240 µM) | 16.2 |  | 
8 | CCS(=O)(=O)CC(=O)Nc1cc(C)ccc1C | ≤ 4.74 mL/min/kg | ≤ 10.7 mL/min/kg | 40.4 µg/mL (≈ 158 µM) |  |  | 
9 | COc1ccc(-c2csc(CC(N)=O)n2)cc1 |  |  | 31.3 µg/mL (≈ 126 µM) | 0.751 |  | 
10 | Oc1ccc(CN2CCN(c3cccc(Cl)c3)CC2)cc1 | 33.6 mL/min/kg | 90 mL/min/kg | 2.2 µg/mL (≈ 7.27 µM) | 0.451 |  | 
11 | CC(C)(C)C(=O)N1CCN(C(=O)CCN2CCOC2=O)CC1 | ≤ 4.74 mL/min/kg | ≤ 10.7 mL/min/kg | 62.7 µg/mL (≈ 201 µM) | 64.9 |  | 
12 | COc1cccc(CN(C)c2ncnc3c2CN(C)CC3)c1 | 18.6 mL/min/kg | 183 mL/min/kg | 57.7 µg/mL (≈ 193 µM) | 0.754 |  | 
13 | CCN1C(=O)C(C)(C)COc2cc(NS(=O)(=O)c3cc(C)c(C)cc3OC)ccc21 | 445 mL/min/kg | 9320 mL/min/kg |  |  |  | 
14 | Cc1nc2cc(C(=O)NC34CCCC3NCC4)ccc2c(=O)[nH]1 (stereo not drawn) | ≤ 4.74 mL/min/kg |  |  | 0.754 | 0.735 | 
15 | Cc1sc2ncn(Cc3c(F)cccc3Cl)c(=O)c2c1C | 80 mL/min/kg | 757 mL/min/kg |  |  |  | 
16 | O=C(NCCc1ccc2c(c1)OCO2)Nc1ccncc1 | 8.32 mL/min/kg | 27.3 mL/min/kg | 46.5 µg/mL (≈ 163 µM) | 3.6 |  | 
17 | CC#CCNc1ccc(-n2cnnn2)c(C)c1 | 21.1 mL/min/kg | 131 mL/min/kg | 19.4 µg/mL (≈ 85.4 µM) | 0.59 |  | 
18 | Cc1nnc2ncc(-c3cccc4ccnn34)cn12 | 9.33 mL/min/kg | 39.7 mL/min/kg |  | 0.468 |  | 

Second part, the molecule after the results:

Row | intrinsic clearance, human liver microsomes | intrinsic clearance, rat liver microsomes | aqueous solubility | MDR1-MDCK efflux ratio | fraction unbound, human plasma | fraction unbound, rat plasma | Compound
19 | 37.6 mL/min/kg | 14.3 mL/min/kg |  | 0.676 |  |  | O=C(Nc1cncc2ccccc12)c1ncccn1
20 | 45.2 mL/min/kg | 165 mL/min/kg |  |  |  |  | Cc1cccc(NC(=O)c2cncn2-c2ccccc2)n1
21 | 13.3 mL/min/kg | 1600 mL/min/kg |  | 0.702 |  |  | CN(Cc1cnc2ccccc2n1)S(=O)(=O)N1CCCC1
22 | 19.2 mL/min/kg | 169 mL/min/kg | 49.4 µg/mL (≈ 172 µM) |  |  |  | CCCN1CCCN(C(=O)c2nc3ccccc3[nH]2)CC1
23 | 22.6 mL/min/kg | 79.3 mL/min/kg | 52.1 µg/mL (≈ 134 µM) | 0.59 |  |  | FC(F)(F)COc1ccc(CN2CCc3c(cnn3-c3ccccc3)C2)nn1
24 | ≤ 4.74 mL/min/kg | 45.1 mL/min/kg |  | 1.2 |  |  | CNCc1cc(NC)nc(C2CCCN2C(=O)COc2ccccc2OC)n1 (stereo not drawn)
25 | 36.4 mL/min/kg | 1900 mL/min/kg | 52.3 µg/mL (≈ 162 µM) | 1.31 | 0.154 | 0.0523 | C[C@@H]1CN(C(=O)CC(c2ccccc2)c2ccccc2)C[C@H](C)O1
26 | 2360 mL/min/kg | 3130 mL/min/kg |  |  |  |  | Cc1cc(C)nc(SCC(=O)N2c3ccccc3C(C)(c3ccccc3)CC2(C)C)n1 (stereo not drawn)
27 | ≤ 4.74 mL/min/kg | 22.7 mL/min/kg | 63.3 µg/mL (≈ 230 µM) | 9.23 |  |  | O=C(Cc1ccc(F)cc1)NCCn1cccnc1=O
28 | ≤ 4.74 mL/min/kg | ≤ 10.7 mL/min/kg |  |  |  |  | Cc1nc(CS(C)(=O)=O)sc1C(=O)Nc1ccccc1

Reference: the Biogen ADME set (Fang et al. 2023)
